{
  "source": "patent US7351421B2",
  "about": "“Drug-eluting stent having collagen drug carrier chemically treated with genipin” (priority 1996, dated 2008)",
  "origin": "cited, not measured here",
  "key": {"3T3 fibroblasts": {"test_system": "3T3 fibroblasts", "conditions": "in vitro"}, "CHO-K1 cells": {"test_system": "CHO-K1 cells", "conditions": "in vitro"}, "[1]": {"conditions": "glutaraldehyde used to crosslink materials"}, "[2]": {"test_system": "intimal proliferative lesion", "conditions": "in vivo"}, "intimal proliferation": {"test_system": "intimal proliferation", "conditions": "de-endothelialized rabbits, in vivo"}, "smooth muscle cell": {"test_system": "smooth muscle cell", "conditions": "in vitro"}},
  "note": "“Also recorded” adds a separate entry of the source.",
  "data": [
    {"molecule": "COC(=O)C1=CO[C@@H](O)[C@@H]2C(CO)=CC[C@H]12", "note": "[Genipin]", "values": [
      {"measurement": "LD50 i.v.", "setting": "mice", "value": 382, "unit": "mg/k"},
      {"measurement": "cytotoxicity compared with glutaraldehyde", "setting": "3T3 fibroblasts", "value": "substantially less cytotoxic; also recorded: significantly less cytotoxic"},
      {"measurement": "clastogenic response (genotoxicity)", "setting": "CHO-K1 cells", "value": "does not cause clastogenic response"}
    ]},
    {"molecule": "O=CCCCC=O", "note": "[glutaraldehyde]", "values": [
      {"measurement": "concentration at which cytotoxic", "setting": "tissue culture", "value": "10-25 ppm"},
      {"measurement": "concentration at which cytotoxic in tissue culture", "setting": "tissue culture; tissue culture, as low as", "value": "≥ 3", "unit": "ppm"},
      {"measurement": "crosslinking concentration giving persistent foreign-body reaction", "setting": "[1]", "value": "above 0.05%"}
    ]},
    {"molecule": "cyclosporin A", "values": [
      {"measurement": "effect on intimal proliferative lesion following arterial balloon catheterization", "setting": "[2]", "value": "inhibition"},
      {"measurement": "reduction of intimal proliferation", "setting": "intimal proliferation", "value": "no significant reduction"},
      {"measurement": "effect on smooth muscle cell proliferation", "setting": "smooth muscle cell", "value": "did not inhibit"}
    ]}
  ]
}
